Biological target: STE20-like serine/threonine-protein kinase (Homo sapiens) (UniProt Q9H2G2)
Assay: SLK binders by thermal stabilization, biophysical, purified human kinase, DSF (AID 514)
Conditions: differential scanning fluorimetry Tm shift, at 10 µM, protein 2 µM, buffer 10 mM HEPES, pH 7.5, NaCl 150 mM, active compounds read high

STE20-like serine/threonine-protein kinase (Homo sapiens), sequence (Q9H2G2 whole entry, looked up): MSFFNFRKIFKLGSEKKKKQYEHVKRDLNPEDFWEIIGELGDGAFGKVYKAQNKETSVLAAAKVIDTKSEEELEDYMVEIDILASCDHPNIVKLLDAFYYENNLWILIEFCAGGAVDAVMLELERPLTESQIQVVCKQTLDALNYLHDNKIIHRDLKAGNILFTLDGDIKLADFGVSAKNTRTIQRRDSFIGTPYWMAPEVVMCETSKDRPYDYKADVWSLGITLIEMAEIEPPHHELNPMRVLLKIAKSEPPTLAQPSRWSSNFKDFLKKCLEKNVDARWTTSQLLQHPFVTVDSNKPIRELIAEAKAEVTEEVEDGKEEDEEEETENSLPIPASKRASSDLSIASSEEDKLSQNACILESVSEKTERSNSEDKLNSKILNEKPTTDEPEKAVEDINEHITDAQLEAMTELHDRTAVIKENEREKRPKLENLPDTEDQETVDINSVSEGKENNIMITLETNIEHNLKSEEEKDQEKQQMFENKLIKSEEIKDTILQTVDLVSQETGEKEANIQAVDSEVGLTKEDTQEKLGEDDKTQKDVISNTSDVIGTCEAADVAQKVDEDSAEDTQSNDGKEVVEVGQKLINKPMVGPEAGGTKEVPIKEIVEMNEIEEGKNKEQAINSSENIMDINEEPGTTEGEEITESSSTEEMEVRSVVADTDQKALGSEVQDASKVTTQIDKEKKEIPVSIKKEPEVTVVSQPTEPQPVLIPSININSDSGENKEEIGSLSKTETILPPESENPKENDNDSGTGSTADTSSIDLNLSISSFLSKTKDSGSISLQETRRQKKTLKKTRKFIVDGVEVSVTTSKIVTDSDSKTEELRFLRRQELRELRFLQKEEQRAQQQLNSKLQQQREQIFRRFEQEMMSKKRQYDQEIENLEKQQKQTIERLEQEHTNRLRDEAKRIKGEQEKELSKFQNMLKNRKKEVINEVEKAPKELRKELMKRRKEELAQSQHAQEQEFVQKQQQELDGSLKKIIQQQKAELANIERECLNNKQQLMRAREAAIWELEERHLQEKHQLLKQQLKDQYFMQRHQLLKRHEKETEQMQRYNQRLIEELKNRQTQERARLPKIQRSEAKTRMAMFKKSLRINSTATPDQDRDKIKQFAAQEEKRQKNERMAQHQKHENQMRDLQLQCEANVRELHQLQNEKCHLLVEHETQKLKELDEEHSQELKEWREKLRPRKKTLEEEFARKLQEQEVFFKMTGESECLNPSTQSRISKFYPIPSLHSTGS

| SMILES | Tm shift |
| --- | --- |
| CC(O)(O)C1(O)C[C@@H]2O[C@@]1(C)n1c3ccccc3c3c4c(c5c6ccccc6n2c5c31)C(=O)NC4 (some centres not stated) | 6.3 C |
| COc1cc(/C=C/C(=O)CC(=O)/C=C/c2ccc(O)c(OC)c2)ccc1O | 3.2 C |
| O=C1Nc2ccccc2/C1=C/c1ccc[nH]1 | 3.1 C |
| COc1ccc(C(=O)c2sc(Nc3cccc(C(F)(F)F)c3)nc2N)cc1 | 4.5 C |
| CC(C)[C@@H](CO)Nc1ccc2ncc(-c3cccc(F)c3)n2n1 | 4.2 C |
| Nc1nc(Nc2ccc(S(N)(=O)=O)cc2)nn1C(=S)Nc1c(F)cccc1F | 12.1 C |
| COc1cc2ncnc(Nc3ccc(NC(=O)c4ccccc4)cc3)c2cc1OC | 5.5 C |
| O=C1NC(=O)C(c2c[nH]c3ccccc23)=C1c1c[nH]c2ccccc12 | 4.6 C |
| Oc1cccc(-c2cnc3ccc(NC4CCOCC4)nn23)c1 | 4.6 C |
| Nc1cccc(-c2cnn3ccc(Nc4cccc(Cl)c4)nc23)c1 | 3.7 C |
| Nc1ccc(-c2cnn3ccc(Nc4cccc(Cl)c4)nc23)cc1 | 4 C |
| Fc1cccc(-c2cnc3ccc(NC4CCOCC4)nn23)c1 | 4.1 C |
| Cn1c(O)c(C2=c3ccccc3=NC2=O)[nH]c1=S | 3.4 C |
| O=Nc1c(-c2c(O)[nH]c3cc(Br)ccc23)[nH]c2ccccc12 | 4.6 C |
| CCC(CO)Nc1ccc2ncc(-c3ccc(O)cc3)n2n1 (configuration not stated) | 3.7 C |
| Clc1cccc(-c2cnc3ccc(NC4CCOCC4)nn23)c1 | 3.9 C |
| O=C(c1ccc(Nc2nccc(-c3cc4ccccc4s3)n2)cc1)N1CCC(N2CCCC2)CC1 | 7.3 C |
| CCn1cnc2c(Nc3cccc(Cl)c3)nc(N[C@@H]3CCCC[C@@H]3N)nc21 | 6.4 C |
| NC(=O)Nc1sc(-c2ccccc2)cc1C(N)=O | 3.5 C |
| COc1ccc(Nc2nc(N)c(C(=O)c3ccc(Cl)cc3)s2)cc1 | 4.4 C |
| COc1cc2ncnc(Nc3cccc(Br)c3)c2cc1OC | 6.9 C |

| SMILES | Tm shift |
| --- | --- |
| Nc1nc(Nc2cccc(Cl)c2)sc1C(=O)c1ccc(F)cc1 | 3.7 C |
| CC(C)[C@@H](CO)Nc1ccc2ncc(-c3ccc(C#N)cc3)n2n1 | 3.7 C |
| Clc1ccc(-c2cnc3ccc(NC4CCOCC4)nn23)cc1 | 3.1 C |
| CCOc1cc2ncnc(Nc3cccc(Br)c3)c2cc1OCC | 7.9 C |
| Oc1ccc(-c2nc(-c3ccc(F)cc3)c(-c3ccncc3)[nH]2)cc1 | 4.4 C |
| N#Cc1cnc2cnc(NCc3cccnc3)cc2c1Nc1ccc(F)c(Cl)c1 | 6.1 C |
| Nc1ncnc2c1c(I)cn2[C@@H]1O[C@H](CO)C(O)C1O (some centres not stated) | 4.2 C |
| Fc1ccc(-c2cnc3ccc(NC4CCOCC4)nn23)cc1 | 3.6 C |
| ON(O)c1ccc(-c2nc(-c3ccc(F)cc3)c(-c3ccncc3)[nH]2)cc1 | 5.4 C |
| Cc1nc(N)sc1-c1ccnc(Nc2cccc(-n3oo3)c2)n1 | 3.6 C |
| CC(C)C(CO)Nc1nc(Nc2cc(N)cc(Cl)c2)c2ncn(C(C)C)c2n1 (configuration not stated) | 6.2 C |
| Cn1cc(C2=C(c3c4n(c5ccccc35)CCC(CN)C4)C(=O)NC2=O)c2ccccc21 (configuration not stated) | 4.5 C |
| O=C(Nc1cccc(Nc2cc(Nc3cccc(C(F)(F)F)c3)ncn2)c1)C1CC1 | 3.4 C |
| c1csc(-c2cnc3ccc(NCC4CC4)nn23)c1 | 3.3 C |
| O=C1Nc2ccccc2/C1=C\c1cnc[nH]1 | 3.3 C |
| CC(C)(C)n1nc(-c2ccc(Cl)cc2)c2c(N)ncnc21 | 3.6 C |
| CCCNC(=O)Nc1ccc(Oc2ncnc3cc(OC)c(OC)cc23)cc1Cl | 5.8 C |
| O=Nc1c(-c2c(O)[nH]c3ccc(I)cc23)[nH]c2ccccc12 | 3.7 C |
| CC(=O)c1cccc(-c2cnc3ccc(N[C@H](CO)C(C)C)nn23)c1 | 3.7 C |
| COc1ccccc1-c1cnc2[nH]c(=O)n(C3CCCC3)c2n1 | 3.3 C |
| CCC(CO)Nc1ccc2ncc(-c3cccc(OC(F)(F)F)c3)n2n1 (configuration not stated) | 3.6 C |

| SMILES | Tm shift |
| --- | --- |
| NCCNc1ncc(C(N)=O)c(Nc2cccc(C(F)(F)F)c2)n1 | 3.3 C |
| NCCCn1cc(C2=C(c3c[nH]c4ccccc34)C(=O)NC2=O)c2ccccc21 | 7.6 C |
| O=C1Nc2ccc(Br)cc2/C1=C/c1cc2c([nH]1)CCCC2 | 3.6 C |
| CC(C)[C@@H](CO)Nc1ccc2ncc(-c3cccc(OC(F)(F)F)c3)n2n1 | 4.3 C |
| COc1c(C=O)c(O)cc2c1C(=O)c1ccccc1C2=O | 5.4 C |
| Nc1cc2ncnc(Nc3cccc(Br)c3)c2cc1N | 5.7 C |
| Cn1cc(/C=C2\C(=O)Nc3ccc(S(N)(=O)=O)cc32)c2ccccc21 | 5 C |
| Clc1cccc(Nc2ccn3ncc(-c4ccc5c(c4)OCO5)c3n2)c1 | 3.7 C |
| Oc1ccc(Nc2nccn3c(-c4cn[nH]c4)cnc23)cc1 | 4.7 C |
| COc1ccc(Cl)cc1NC(=O)Nc1cc(C)nc2ccccc12 | 3.4 C |
| Oc1cccc(-c2cnc3ccc(NCC4CC4)nn23)c1 | 3.2 C |
| Clc1cccc(-c2cnc3ccc(NCCc4ccccn4)nn23)c1 | 3.5 C |
| CN(C)CC1CCn2c(c(C3=C(c4cn(C)c5ccccc45)C(=O)NC3=O)c3ccccc32)C1 (configuration not stated) | 4.2 C |
| c1ccc(-c2cnc3ccc(NCc4ccco4)nn23)cc1 | 3.1 C |
| CC(C)[C@@H](CO)Nc1ccc2ncc(-c3cccc(O)c3)n2n1 | 4.5 C |
| COc1ccc(Nc2nc(N)c(C(=O)c3ccc(OC)cc3)s2)cc1 | 3.9 C |
| O=C1NC(=O)C(c2cn(CCCn3ccnc3)c3ccccc23)=C1Nc1ccccc1 | 6.3 C |
| O=C(Nc1cccc(Nc2nccc(Nc3cccc(C(F)(F)F)c3)n2)c1)C1CC1 | 3.7 C |
| Nc1cccc(-c2cc3c(Oc4cccc(O)c4)ncnc3[nH]2)c1 | 5.7 C |
| O=C1NCc2c1c1c3ccccc3[nH]c1c1[nH]c3ccccc3c21 | 5.1 C |
| O=Nc1c(-c2c(O)[nH]c3ccccc23)[nH]c2ccccc12 | 3.9 C |

| SMILES | Tm shift |
| --- | --- |
| CC(C)[C@@H](CO)Nc1ccc2ncc(-c3cccc(C(F)(F)F)c3)n2n1 | 4.8 C |
| Cc1cc(Nc2nc(-c3ccccc3)nc3ccccc23)n[nH]1 | 6.4 C |
| COc1cc2ncnc(Nc3cccc(O)c3)c2cc1OC | 3.2 C |
| OCC(O)CCO/N=C1/C(c2c(O)[nH]c3ccccc23)=Nc2ccccc21 (configuration not stated) | 4.7 C |
| COc1cccc(-c2cnn3ccc(Nc4cccc(Cl)c4)nc23)c1 | 4.7 C |
| CCC(CO)Nc1ccc2ncc(-c3ccc(F)c(Cl)c3)n2n1 (configuration not stated) | 3.8 C |
| CCN(CC)CCNC(=O)c1c(C)[nH]c(/C=C2\C(=O)Nc3ccc(Cl)cc32)c1C | 7.5 C |
| N=C(N)SCCCn1cc(C2=C(c3c[nH]c4ccccc34)C(=O)NC2=O)c2ccccc21 | 10.6 C |
| COc1ccc2c(c1)/C(=C/c1cnc[nH]1)C(=O)N2 | 3.3 C |
| CN(C)S(O)(O)c1ccc2c(c1)/C(=C/c1cc3c([nH]1)CCCC3)C(=O)N2 | 6.2 C |
| COc1cncc(-c2cnc3ccc(N[C@H](CO)C(C)C)nn23)c1 | 3.1 C |
| CC(C)(C)n1nc(-c2cccc3ccccc23)c2c(N)ncnc21 | 6.1 C |
| CN(C)CCCn1cc(C2=C(c3c[nH]c4ccccc34)C(=O)NC2=O)c2ccccc21 | 6.8 C |
| FC(F)(F)Oc1cccc(-c2cnc3ccc(NC4CCOCC4)nn23)c1 | 3.6 C |
| CC(C)[C@@H](CO)Nc1ccc2ncc(-c3cccc(Cl)c3)n2n1 | 4.7 C |
| COc1cncc(-c2cnc3ccc(NC4CCOCC4)nn23)c1 | 3.4 C |
| CNC(=O)c1cc(Oc2ccc(NC(=O)Nc3ccc(C)c(C(F)(F)F)c3)cc2)ccn1 | 8 C |
| O=c1c(O)c(-c2ccc(O)c(O)c2)oc2cc(O)cc(O)c12 | 5.7 C |
| Cc1[nH]c(/C=C2\C(=O)Nc3ccc(S(=O)(=O)N(C)c4cccc(Cl)c4)cc32)c(C)c1C(=O)N1CCN(C)CC1 | 7.7 C |
